Key:
Ndy1 = experiment: siRNA knock down in MEFs (Western blot, real time PCR of p16Ink4a, p19Arf, Ezh2, miR-101); assay type: cell-based, mouse; details: passage 3 MEFs, knock down of the short form of Ndy1
Method: At a time point four days after transfection cells were analyzed by Western blotting and total mRNA was collected and analyzed by real-time PCR with primers specific for p16^Ink4a and p19^Arf and primers specific for the long and short forms of Ndy1. (n=3)*p<0.05
MEFs overexpressing Ndy1 or Ndy2 and MEFs in which Ndy1 was knocked down with siRNA (1433-[…]-1454, SEQ ID NO: 1), were monitored for senescence by light microscopy and β-galactosidase staining and by cell counting at each passage. Transfection of siRNA was carried out using Lipofectamine 2000 (Invitrogen; Carlsbad, Calif.). Knockdown of Ndy1 was confirmed by Western blotting and real time RTPCR.
For siRNA. MEFs transfected with Ndy1 (1433-[…]-1454; SEQ ID NO: 51) or control siRNA (Dharmacon) were plated at 10^5 cells per 6 cm dish and 3-4 days later were harvested and analyzed (Pfau, R., et al. (2008) Proc Natl Acad Sci USA 105, 1907-12, incorporated herein by reference in its entirety). MEFs were transfected with the help of Lipofectamine 2000 (Invitrogen). To specifically knock down the short form of Ndy1 the following siRNA were used: 5′-[…]-′3 (SEQ ID NO: 52) which specifically targets the exon1 of the v2 isoform of Ndy1 (NM_013910). siRNAs for Ezh2 (a mix of two siRNAs form Applied Biosystems, #AM16708 siID #157427 and #157426) and Bmi-1 (Santa Cruz Biotechnologies, # sc-29815) were used in a final concentration of 80 nM.

MEFs [1] = experiment: Oxidant/antioxidant treatment of MEFs, Ezh2 Western blot; assay type: cell-based, mouse; details: NAC 5 mM, Trolox 1 mM, H2O2 0.5 or 1 mM
Method: MEFs were treated with NAC (5 mM), Trolox (1 mM) or H2O2 (0.5 or 1 mM). Nuclear extracts were probed with antibodies specific for Ezh2 and for CREB, levels of which served as loading control.
(§1) TROLOX ((±)-6-Hydroxy-2,5,7,8-tetramethylchromane-2-carboxylic acid, (Sigma, catalog number 238813), NAC (N-Acetyl-L-cysteine, Sigma, catalog number A9165), H2O2 (Sigma, catalog number H-1009) and PD173074 (N-[2-[[4-(Diethylamino)butyl]amino]-6-(3,5-dimethoxyphenyl)pyrido[2,3-d]pyrimidin-7-yl]-N′-(1,1-dimethylethyl) urea, FGFR-1/3 inhibitor, TOCRIS Bioscience, catalog number 3044) were added directly in the culture at the indicated concentrations.

TCCSUP cells = experiment: PD173074 treatment of TCCSUP cells (Western blot, real time RT-PCR); assay type: cell-based, human
Method: (§2) TCCSUP cells were treated with 0.5 μM PD173074 or carrier for 24 hours. (upper) Nuclear and cytoplasmic extracts were probed with antibodies specific for each of Ndy1, Ezh2 and phosphoERK. CREB and ERK levels served as loading controls. (lower) miR-101 levels were measured with real time RT-PCR; U6 small nuclear RNA levels were used as internal control. Data are expressed as mean±SD.
(§3) TCCSUP cells were transduced with an HA.Ndy1 overexpression construct or with the empty vector (EV), and were subsequently treated with 0.5 μM PD173074 or carrier for 24 hours. (upper) Nuclear extracts were probed with antibodies specific for each of HA-tag (exogenous Ndy1), Ndy1 (both endogenous and exogenous Ndy1) and Ezh2. CREB levels served as loading control. (lower) miR-101 levels were measured with real time RT-PCR; U6 small nuclear RNA levels were used as internal control. Data are expressed as mean±SD.
as §1
(§4) As a next step, FGF signaling was examined to determine importance for Ezh2 upregulation by Ndy1 in these cells. To address this issue, TCCSUP or WIDR cells, two of the above five cell lines, were treated with PD173074, an inhibitor of both FGFR1 and both FGFR3.
(§5) To examine if ectopic expression of Ndy1 reverses the effects of PD173074, namely miR-101 upregulation and Ezh2 downregulation, TCCSUP or WIDR cells were transduced with a pBabe-based retroviral Ndy1 overexpression construct. Cells transduced with the empty pBabe vector were used as control. The engineered cells were subsequently treated with PD173074. Nuclear lysates from these cells were probed with antibodies specific for each of HA-tag (exogenous Ndy1), Ndy1 (both exogenous and endogenous), Ezh2, and CREB. RNA isolated from the same cells was used to measure miR-101 levels with real time RT-PCR.

WIDR cells = experiment: PD173074 treatment of WIDR cells (Western blot, real time RT-PCR); assay type: cell-based, human
Method: as §2, with “WIDR cell” for “TCCSUP cells”, “phosphoERK antibodies.” for “phosphoERK.”
as §3, with “WIDR” for “TCCSUP”, “or” for “or with”, “of with” for “of”, “controls.” for “control.”
as §1, §4, §5

MEFs [2] = experiment: Stimulation of serum-starved MEFs with growth factors or serum (Ezh2, Ndy1, miR-101 levels); assay type: cell-based, mouse; details: serum-starved MEFs, 24 hours after stimulation; for Ezh2 expression: 20 ng/ml (serum 10%)
Method: MEFs were transfected with control siRNA and stimulated with serum (10%) for 1, 4, 12 and 18 hours. (upper) Nuclear extracts were probed with antibody specific for Ezh2 and for CREB, levels of which served as loading control. (lower) Ndy1 and Ezh2 mRNA levels were measured with real time RT-PCR; GAPDH mRNA levels were used as internal control. Data are expressed as mean±SD.
Serum starved MEFs were stimulated with each of FGF-2 (20 ng/ml), IGF-1 (20 ng/ml), PDGF (20 ng/ml), serum (10%), VEGF (20 ng/ml), EGF (20 ng/ml) or TNFα (50 ng/ml). Nuclear extracts were probed with antibody specific for Ezh2 and for CREB, levels of which served as loading control.
Data are expressed as mean±SD.
MEFs transfected with control siRNA were stimulated with FGF-2 for 1, 4, 12 or 18 hours. (upper) Nuclear extracts were probed with antibody specific for Ezh2. CREB levels served as loading control. (middle) Ndy1 and Ezh2 mRNA were measured with real time RT-PCR; GAPDH mRNA levels were used as internal control. Data are expressed as mean±SD. (lower) miR-101 levels were measured with real time RT-PCR; U6 small nuclear RNA levels were used as internal control. Data are expressed as mean±SD.
For stimulation with FGF-2 (Cell signalling, catalog number 8910), IGF-1 (R&D Systems, catalog number 791-MG), PDGF (Cell signalling, catalog number 9909), VEGF (R&D systems, catalog number 493-MV), EGF (R&D systems, catalog number 236-EG), TNFα (Cell Signalling, catalog number 2169), cells were serum starved for 16 hours and growth factors were added at a final concentration of 20 ng/ml each, for 24 hours.
To identify a pathway regulating Ezh2 expression via the Ndy1/miR-101 axis, serum-starved MEFs were stimulated with FGF-2, IGF-1, PDGF, EGF, VEGF, TNFα or serum and were examined for expression of Ezh2, Ndy1 and miR-101 before and 24 hours after stimulation. […] This was confirmed with analyses in which FGF-2 was used to stimulate serum-starved MEFs transfected with a control siRNA or siRNA for Ndy1 (FIG. 36).

[3] = TCCSUP cells overexpressing HA.Ndy1, 0.5 μM, 24 hours
[4] = WIDR cells overexpressing HA.Ndy1, 0.5 μM, 24 hours

For “5′-CCGAGGACGACGACUAUGAUU-′3 [Ndy1 short form siRNA]”, the p16Ink4a (Ndy1) was “did not upregulate significantly” and the p19Arf (Ndy1) was “did not upregulate significantly”.

With `Cc1c(C)c2c(c(C)c1O)CCC(C)(C(=O)O)O2` (racemic) [Trolox, (±)-6-Hydroxy-2,5,7,8-tetramethylchromane-2-carboxylic acid] the Ezh2 protein levels (MEFs [1]) was “no effect”.

`OO` [H2O2] was tested, and the Ezh2 protein levels (MEFs [1]) was “no effect”.

For `CC(=O)N[C@@H](CS)C(=O)O` [NAC, N-Acetyl-L-cysteine], the Ezh2 protein levels (MEFs [1]) was “no effect”.

`CCN(CC)CCCCNc1ncc2cc(-c3cc(OC)cc(OC)c3)c(NC(=O)NC(C)(C)C)nc2n1` [PD173074, N-[2-[[4-(Diethylamino)butyl]amino]-6-(3,5-dimethoxyphenyl)pyrido[2,3-d]pyrimidin-7-yl]-N′-(1,1-dimethylethyl) urea] was tested, and the “FGF signaling (level of ERK1/2 phosphorylation)” value (TCCSUP cells; TCCSUP cells) was “blocked”, the “effect on Ezh2” value (TCCSUP cells; [3]) was “abrogated” and the “effect on miR-101” value (TCCSUP cells; [3]) was “abrogated”. The Ezh2 protein level (TCCSUP cells; TCCSUP cells, 0.5 μM, 24 hours) was “downregulates”, the Ndy1 protein level (TCCSUP cells; TCCSUP cells, 0.5 μM, 24 hours) was “downregulates” and the miR-101 levels (TCCSUP cells; TCCSUP cells, 0.5 μM, 24 hours) was “upregulates”. For the same molecule, the “FGF signaling (level of ERK1/2 phosphorylation)” value (WIDR cells; WIDR cells) was “blocked”, the “effect on Ezh2” value (WIDR cells; [4]) was “abrogated” and the “effect on miR-101” value (WIDR cells; [4]) was “abrogated”. The Ezh2 protein level (WIDR cells; WIDR cells, 0.5 μM, 24 hours) was “downregulates”, the Ndy1 protein level (WIDR cells; WIDR cells, 0.5 μM, 24 hours) was “downregulates” and the miR-101 levels (WIDR cells; WIDR cells, 0.5 μM, 24 hours) was “upregulates”.

With IGF-1: growth factor, R&D Systems the “level at which Ezh2 expression is induced” value (MEFs [2]) was “at both the RNA and protein levels” and the Ezh2 expression (MEFs [2]) was “significantly upregulated”.

With PDGF the “level at which Ezh2 expression is induced” value (MEFs [2]) was “at both the RNA and protein levels” and the Ezh2 expression (MEFs [2]) was “significantly upregulated”.

In the case of VEGF, the “expression of Ndy1” value (MEFs [2]) is reported as “only moderate”, the “level at which Ezh2 expression is induced” value (MEFs [2]) is reported as “primarily at the protein level” and the miR-101 (MEFs [2]) is reported as “downregulating”. For the same molecule, the Ezh2 expression (MEFs [2]) was “significantly upregulated”.
